Measured values from article PMC11212140, “Molecular Bidents with Two Electrophilic Warheads as a New Pharmacological Modality” (ACS Central Science, 2024).

What was measured:
[1] = test system: phosphorylation of EGFR, ERK1/2, and AKT; assay: Immunoblot of EGFR signaling pathway in H3255 cells; assay type: cell-based, human; conditions: H3255, 6 h treatment
Procedure: (A) Dose–response curves for ZNL-0056 and osimertinib in H3255 cells following 72 h of treatment. Cell viability was assessed with CellTiter-Glo. Data are presented as the mean ± SEM (n = 4). Representative data from three independent experiments are shown. (B) Immunoblot assessment of the effect of ZNL-0056 on EGFR signaling pathway in H3255 cells after 6 h treatment. Representative blots from two independent experiments are shown. […] TEXT PRINTED IN THE PICTURE: (A) ZNL-0056: H3255: IC50 (nM): 471.3 | (A) Osimertinib: H3255: IC50 (nM): 27.76 […]
For infection of Ba/F3 cells, 2.5 mL of viral supernatant and 8 μg/mL polybrene was added to 2.5 million cells per well in six-well plates. The plate was centrifuged at 2500 rpm for 90 minutes at 37 °C for the spin infection. […]
Cells were lysed in RIPA buffer (150 mM NaCl, 1.0% IGEPAL® CA-630, 0.5% sodium deoxycholate, 0.1% SDS, 50 mM Tris, pH 8.0) (Sigma, Cat# R0278) with protease inhibitor and phosphatase inhibitor (Roche). The protein concentrations were measured by BCA analysis (Thermo Fisher Scientific, Cat # PI23225). […]
or IRDye 680RD goat anti-Mouse IgG (LICOR Biosciences , Cat # 926-68070) secondary antibodies at room temperature for 1 hour. The membranes were detected on Odyssey CLx system. […]

EGFR = test system: T1, EGFR; assay: Cellular target engagement assays (competitive pulldown); assay type: cell-based; conditions: EGFR^L858R Ba/F3 cells, 6 h pretreatment
T1 construct: expressed in transfected cells; host or cells: Ba/F3 (murine pro-B cells transduced with an EGFR mutant expression vector)
Procedure: Figure 4 ZNL-0056 covalently engages Cys775 and Cys797 in EGFR Ba/F3 cells. (A) Carton of competition EGFR pulldown strategy to test covalent EGFR engagement in cells. (B) Competitive pulldown assay in EGFR^L858R Ba/F3 cells treated with ZNL-0056 at the indicated concentrations for 6 h. Cell lysates were incubated with bio-osimertinib. (C) Competitive pulldown assay in EGFR^L858R Ba/F3 cells treated with ZNL-0056 at the indicated concentrations for 6 h. Cell lysates were incubated with bio-ZNL-0013, which competes for the binding pocket of the target kinase. (D) Competitive pulldown assay in EGFR^L858R/C797S Ba/F3 cells treated with ZNL-0056 at the indicated concentrations for 6 h. Cell lysates were incubated with bio-ZNL-0013, which competes for the binding pocket of the target kinase. Western blotting showing the pulldown (PD) or input (total lysate) of EGFR. […]
treatment. Cell viability was determined by using CellTiter-Glo (Promega #G7571) according to the manufacturer’s instructions, measuring luminescence using an Envision plate-reader (PerkinElmer Inc.). […]
After 6 hours treatment, cells were pelleted, washed with PBS once and lysed with IP lysis buffer (25mMTris-HCl pH 7.4, 150mM NaCl, 1 mM EDTA, 1% NP-40 and 5% glycerol) (Thermo Fisher Scientific, Cat#87788) containing protease/phosphatase inhibitor cocktail (Roche). The protein concentrations were measured by BCA analysis (Pierce). […]

C=CC(=O)Nc1cc(C(=O)Nc2nc3cccc(C)c3n2[C@@H]2CCCCN(C(=O)C=C)C2)cs1 [ZNL-0056]
concentration inhibiting phosphorylation of EGFR, ERK1/2, and AKT (as low as) [1]: 0.1 µM
prevention of EGFR binding to osimertinib-biotin target-engagement probe (EGFR): dose-dependent manner
